From US12660819B2, “Herbicidal derivatives” (SYNGENTA CROP PROTECTION AG, priority 2020, dated 2026) come the findings set out here.

Format in all cases: in vivo
In test [1] the test system is Zea mays (ZEAMX). Kind of test: Pre-emergence Test (glasshouse, percentage damage to the plant). The conditions noted are these: 1000 g/ha unless otherwise stated; for percentage damage to the plant, ZEAMX: five-point scale.
The test system of test [2] is Abutilon theophrasti (ABUTH). The test is described as above. The conditions noted are these: 1000 g/ha unless otherwise stated; for percentage damage to the plant, ABUTH: five-point scale.
For test [3], the system named is Ipomoea hederacea (IPOHE). The description is as above. As to conditions: 1000 g/ha unless otherwise stated; for percentage damage to the plant, IPOHE: five-point scale.
The test system of test [4] is Echinochloa crus-galli (ECHCG). Described as above. As to conditions: 1000 g/ha unless otherwise stated; for percentage damage to the plant, ECHCG: five-point scale.
Test [5] deals with Setaria faberi (SETFA). Kind of test: Post-emergence Test (glasshouse, percentage damage to the plant). The conditions noted are these: 1000 g/ha unless otherwise stated, evaluated after 13 days; for Post-emergence Test SETFA, percentage damage to the plant (five-point scale): post-emergence spray. As for the experimental part:
(§1) Seeds of a variety of test species are sown in standard soil in pots (Amaranthus retoflexus (AMARE), Solanum nigrum (SOLNI), Setaria faberi (SETFA), Lolium perenne (LOLPE), Echinochloa crus-galli (ECHCG), Ipomoea hederacea (IPOHE), Abutilon theophrasti (ABUTH), Zea mays (ZEAMX), Amaranthus palmeri (AMAPA). After 8 days cultivation under controlled conditions in a glasshouse (at 24° C./16° C., day/night; 14 hours light; 65% humidity), the plants are sprayed with an aqueous spray solution derived from the formulation of the technical active ingredient in acetone/water (50:50) solution containing 0.5% Tween 20 (polyoxyethelyene sorbitan monolaurate, CAS RN 9005-64-5). Compounds are applied at 1000 g/ha unless otherwise stated. The test plants are then grown in a glasshouse under controlled conditions in a glasshouse (at 24° C./16° C., day/night; 14 hours light; 65% humidity) and watered twice daily. After 13 days the test is evaluated for the percentage damage caused to the plant. The biological activities are shown in the following table on a five-point scale (5=81-100%; 4=61-80%; 3=41-60%; 2=21-40%; 1=0-20%).

Test [6] concerns Ipomoea hederacea (IPOHE). The description is as above. The conditions noted are these: 1000 g/ha unless otherwise stated, evaluated after 13 days; for Post-emergence Test IPOHE, percentage damage to the plant (five-point scale): post-emergence spray. As for the experimental part: as §1
For test [7], the system named is Zea mays (ZEAMX). Described as above. The conditions noted are these: 1000 g/ha unless otherwise stated, evaluated after 13 days; for Post-emergence Test ZEAMX, percentage damage to the plant (five-point scale): post-emergence spray. The procedure: as §1
Test [8] has as its system Amaranthus retoflexus (AMARE). The description is as above. The conditions noted are these: 1000 g/ha unless otherwise stated, evaluated after 13 days; for Post-emergence Test AMARE, percentage damage to the plant (five-point scale): post-emergence spray. The procedure: as §1
For test [9], the system named is Amaranthus retoflexus (AMARE). Description: Pre-emergence Test (glasshouse, percentage damage to the plant). The conditions noted are these: 1000 g/ha unless otherwise stated; for percentage damage to the plant, AMARE: five-point scale.
Test [10] deals with Setaria faberi (SETFA). Described as above. As to conditions: 1000 g/ha unless otherwise stated; for percentage damage to the plant, SETFA: five-point scale.

SMILES strings stand for the structures.

In the case of `CCn1c(C)c(-c2ccc(Cl)c(Cl)c2)c(=O)c(C(=O)O)c1-c1ccc(Cl)cc1` [Compound 195, 2-(4-chlorophenyl)-5-(3,4-dichlorophenyl)-1-ethyl-6-methyl-4-oxo-pyridine-3-carboxylic acid], the “percentage damage to the plant, ZEAMX” value in the test with Zea mays (ZEAMX) [1] stood at 0. In addition, the “percentage damage to the plant, ABUTH” value in test [2] is 0. In [3], the “percentage damage to the plant, IPOHE” value amounted to 0. In addition, the “percentage damage to the plant, ECHCG” value in [4] was 2 (2=21-40%). Further, in the test with Setaria faberi (SETFA) [5], the “Post-emergence Test SETFA, percentage damage to the plant (five-point scale)” value was 2 (2=21-40%). The “Post-emergence Test IPOHE, percentage damage to the plant (five-point scale)” value in [6] was 3 (3=41-60%). The “Post-emergence Test ZEAMX, percentage damage to the plant (five-point scale)” value in the test with Zea mays (ZEAMX) [7] is recorded as 2 (2=21-40%). In [8], the “Post-emergence Test AMARE, percentage damage to the plant (five-point scale)” value is recorded as 4 (4=61-80%). Further, in test [9], the “percentage damage to the plant, AMARE” value is recorded as 2 (2=21-40%). Moreover, the “percentage damage to the plant, SETFA” value in the test on Setaria faberi (SETFA) [10] is 1 (1=0-20%).

For `CCn1c(C)c(-c2ccc(Cl)c(C#N)c2)c(=O)c(C(=O)O)c1-c1ccc(Cl)cc1` [Compound 196, 5-(4-chloro-3-cyano-phenyl)-2-(4-chlorophenyl)-1-ethyl-6-methyl-4-oxo-pyridine-3-carboxylic acid], the “percentage damage to the plant, ZEAMX” value in the test on Zea mays (ZEAMX) [1] worked out at 0. Also, in [2], the “percentage damage to the plant, ABUTH” value is listed as 0. In addition, the “percentage damage to the plant, IPOHE” value in test [3] is 1 (1=0-20%). Further, the “percentage damage to the plant, ECHCG” value in [4] is reported as 2 (2=21-40%). Moreover, the “Post-emergence Test SETFA, percentage damage to the plant (five-point scale)” value with Setaria faberi (SETFA) [5] was 3 (3=41-60%). In addition, the “Post-emergence Test IPOHE, percentage damage to the plant (five-point scale)” value in test [6] was 3 (3=41-60%). In the test with Zea mays (ZEAMX) [7], the “Post-emergence Test ZEAMX, percentage damage to the plant (five-point scale)” value is 2 (2=21-40%). Moreover, in test [8], the “Post-emergence Test AMARE, percentage damage to the plant (five-point scale)” value was 3 (3=41-60%). In addition, the “percentage damage to the plant, AMARE” value in test [9] was 1 (1=0-20%). Further, in the test with Setaria faberi (SETFA) [10], the “percentage damage to the plant, SETFA” value is 1 (1=0-20%).

For `CCn1c(C)c(-c2cc(C)c(Cl)c(C)c2)c(=O)c(C(=O)O)c1-c1ccc(Cl)cc1` [Compound 197, 5-(4-chloro-3,5-dimethyl-phenyl)-2-(4-chlorophenyl)-1-ethyl-6-methyl-4-oxo-pyridine-3-carboxylic acid], in the test with Zea mays (ZEAMX) [1], the “percentage damage to the plant, ZEAMX” value stood at 0. Further, the “percentage damage to the plant, ABUTH” value in test [2] worked out at 0. In addition, in test [3], the “percentage damage to the plant, IPOHE” value is 0. In addition, the “percentage damage to the plant, ECHCG” value in test [4] is listed as 0. Moreover, the “Post-emergence Test SETFA, percentage damage to the plant (five-point scale)” value in the test with Setaria faberi (SETFA) [5] is recorded as 1 (1=0-20%). Besides, in [6], the “Post-emergence Test IPOHE, percentage damage to the plant (five-point scale)” value is on record as 2 (2=21-40%). Further, in the test on Zea mays (ZEAMX) [7], the “Post-emergence Test ZEAMX, percentage damage to the plant (five-point scale)” value was 1 (1=0-20%). Further, the “Post-emergence Test AMARE, percentage damage to the plant (five-point scale)” value in [8] is listed as 1 (1=0-20%). Moreover, the “percentage damage to the plant, AMARE” value in [9] is listed as 0. The “percentage damage to the plant, SETFA” value with Setaria faberi (SETFA) [10] was 0.

Turning to `CCn1c(C)c(-c2cc(F)c(F)c(F)c2)c(=O)c(C(=O)O)c1-c1ccc(Cl)cc1` [Compound 200, 2-(4-chlorophenyl)-1-ethyl-6-methyl-4-oxo-5-(3,4,5-trifluorophenyl)pyridine-3-carboxylic acid], the “percentage damage to the plant, ZEAMX (five-point scale)” value with Zea mays (ZEAMX) [1] (Zea mays) is reported as 0. The “percentage damage to the plant, ABUTH (five-point scale)” value in test [2] (Abutilon theophrasti) is listed as 3 (3=41-60%). For the same compound, the “percentage damage to the plant, IPOHE (five-point scale)” value in test [3] (Ipomoea hederacea) is 2 (2=21-40%). Also, in test [4] (Echinochloa crus-galli), the “percentage damage to the plant, ECHCG (five-point scale)” value is 3 (3=41-60%). For the same compound, in the test on Setaria faberi (SETFA) [5] (post-emergence), the “SETFA, percentage damage caused to the plant (five-point scale)” value is on record as 3 (3=41-60%). For the same compound, the “IPOHE, percentage damage caused to the plant (five-point scale)” value in test [6] (post-emergence) is given as 3 (3=41-60%). Further, the “ZEAMX, percentage damage caused to the plant (five-point scale)” value with Zea mays (ZEAMX) [7] (post-emergence) was 2 (2=21-40%). In addition, the “AMARE, percentage damage caused to the plant (five-point scale)” value in test [8] (post-emergence) is recorded as 1 (1=0-20%). Further, in test [9] (Amaranthus retoflexus), the “percentage damage to the plant, AMARE (five-point scale)” value is on record as 0. Moreover, the “percentage damage to the plant, SETFA (five-point scale)” value in the test on Setaria faberi (SETFA) [10] (Setaria faberi) is on record as 2 (2=21-40%).
